Like-named read-outs stand apart in the source and are kept apart here.
Assays:
[1] = tested on: Klebsiella pneumoniae expressing VIM-1 (IHMA599644); test: Antibiotic potentiation activity: synergistic concentration (MITC95) with imipenem, growth by OD600; type: cell-based; conditions: 95% inhibition of bacterial growth, strain IHMA599644
In short: (§1)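 MITC95 = lowest inhibitor concentration giving 95% growth inhibition, read by absorbance after 22–24 h at 35° C. Compound range 200 μM to 0.195 μM, imipenem fixed at 1 or 4 μg/ml, bacteria in 1.1×CAMHB from saline suspension diluted 1:100.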

[2] = tested on: Serratia marcescens expressing IMP-1 (CL5741); test: as above; type: cell-based; conditions: 95% inhibition of bacterial growth, strain CL5741
In short: as §1

[3] = tested on: Escherichia coli expressing NDM-1 (CLB30005); test: as above; type: cell-based; conditions: 95% inhibition of bacterial growth, strain CLB30005
In short: as §1

IMP-1 = IMP-1 (Serratia marcescens, UniProt P52699); test: Enzyme activity: determination of IC50, fluorescence assay with CCF2-FA substrate; type: biochemical; conditions: CCF2-FA 1.25 μM, 2 hours at 25° C.
Sequence of IMP-1 (P52699 19-246, looked up, species assumed): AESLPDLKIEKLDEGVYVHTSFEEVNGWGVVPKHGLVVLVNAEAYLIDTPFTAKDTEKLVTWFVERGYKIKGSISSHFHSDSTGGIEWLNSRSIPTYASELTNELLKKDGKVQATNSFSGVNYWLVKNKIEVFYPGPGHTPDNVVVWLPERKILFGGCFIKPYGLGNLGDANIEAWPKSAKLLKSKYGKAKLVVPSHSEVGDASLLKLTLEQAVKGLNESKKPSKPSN
In short: (§2)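 100 mM KH2PO4 pH 7 + 0.005% Tween-20 + 10 μM ZnSO4; CCF2-FA 1.25 μM; NDM-1 1 pM, IMP-1 2 pM, VIM-1 30 pM; cpd 20–0.00063 μM final, DMSO 1:50. 2 h, 25° C. Ex 405/em 460 nm; IC50, 4-param fit.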

VIM-1 = VIM-1 (Pseudomonas aeruginosa, UniProt A0A0F7KYQ8); test: as above; type: biochemical; conditions: CCF2-FA 1.25 μM, 2 hours at 25° C.
In short: as §2

NDM-1 = NDM-1 (Klebsiella pneumoniae, UniProt C7C422); test: as above; type: biochemical; conditions: CCF2-FA 1.25 μM, 2 hours at 25° C.
Sequence of NDM-1 (C7C422 29-270, looked up, species assumed): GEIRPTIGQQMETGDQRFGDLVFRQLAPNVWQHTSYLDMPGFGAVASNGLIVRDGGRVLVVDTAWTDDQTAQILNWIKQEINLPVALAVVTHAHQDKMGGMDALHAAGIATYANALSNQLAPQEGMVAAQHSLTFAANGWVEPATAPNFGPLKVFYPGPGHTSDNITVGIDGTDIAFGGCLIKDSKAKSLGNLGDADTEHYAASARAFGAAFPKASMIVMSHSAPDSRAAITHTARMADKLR
In short: as §2

[4] = enzyme 2 pM, read-out: IMP1 IC50
[5] = enzyme 30 pM, read-out: VIM1 IC50
[6] = enzyme 1 pM, read-out: NDM1 IC50

Row | SMILES | VIM1 KP599644 MITC95 [1] | IMP1 SM5741 MITC95 [2] | NDM1 EC30005 MITC95 [3] | IC50 (IMP-1; [4]) | IC50 (VIM-1; [5]) | IC50 (NDM-1; [6]) | IC50 (IMP-1; IMP1 IC50, enzyme 2 pM) | IC50 (VIM-1; VIM1 IC50, enzyme 30 pM) | IC50 (NDM-1; NDM1 IC50, enzyme 1 pM)
1 | O=C(O)[C@@H](CC1CC1)[C@H](Cc1ccccc1)c1nnn[nH]1 [Example 13, (2S,3S)-2-(cyclopropylmethyl)-4-phenyl-3-(1H-tetrazol-5-yl)butanoic acid] | 50 µM | 150 µM | 12.5 µM | 460 nM | 16 nM | 128 nM |  |  | 
2 | CC(C)=CCC[C@@H](C(=O)O)[C@H](Cc1ccccc1)c1nnn[nH]1 [Example 14, (2R)-6-methyl-2-[(1S)-2-phenyl-1-(1H-tetrazol-5-yl)ethyl]hept-5-enoic acid] | 100 µM | 200 µM | 15.6 µM | 1600 nM | 37 nM | 150 nM |  |  | 
3 | O=C(O)[C@@H](C1CCCC1)[C@H](Cc1ccccc1)c1nnn[nH]1 [Example 17, (2S,3S)-2-cyclopentyl-4-phenyl-3-(1H-tetrazol-5-yl)butanoic acid] | 37.5 µM | 37.5 µM | 18.8 µM | 110 nM | 3.7 nM | 16 nM |  |  | 
4 | CCCC(C)[C@H](C(=O)O)[C@H](Cc1ccccc1)c1nnn[nH]1 (stereo partly drawn) [Example 18, (2S)-3-methyl-2-((S)-2-phenyl-1-(1H-tetrazol-5-yl)ethyl)hexanoic acid] | 200 µM | 37.5 µM | 18.8 µM | 30 nM | 36 nM | 26 nM |  |  | 
5 | CCC(C)[C@H](C(=O)O)[C@H](Cc1ccccc1)c1nnn[nH]1 (stereo partly drawn) [Example 19, (2S)-3-methyl-2-((S)-2-phenyl-1-(1H-tetrazol-5-yl)ethyl)pentanoic acid] | 50 µM | 50 µM | 9.4 µM | 62 nM | 24 nM | 31 nM |  |  | 
6 | CC(C)[C@H](C(=O)O)[C@H](Cc1ccccc1)c1nnn[nH]1 [Example 20, (2S,3S)-2-isopropyl-4-phenyl-3-(1H-tetrazol-5-yl)butanoic acid] | 69 µM | 128 µM | 4.7 µM | 390 nM | 22 nM | 26 nM |  |  | 
7 | O=C(O)[C@@H](CCF)[C@H](Cc1ccccc1)c1nnn[nH]1 [Example 21, (2S,3S)-2-(2-fluoroethyl)-4-phenyl-3-(1H-tetrazol-5-yl)butanoic acid] | >200 µM | >200 µM | 75 µM | 2700 nM | 15 nM | 190 nM |  |  | 
8 | O=C(O)[C@@H](CC(F)F)[C@H](Cc1ccccc1)c1nnn[nH]1 [Example 22, (2S,3S)-2-(2,2-difluoroethyl)-4-phenyl-3-(1H-tetrazol-5-yl)butanoic acid] | 50 µM | 200 µM | 31 µM | 2600 nM | 14 nM | 280 nM |  |  | 
9 | CC(C)C[C@H](C(=O)O)[C@@H](c1nnn[nH]1)[C@H](C)c1ccccc1 [Example 27, (2S,3S,4S)-2-isobutyl-4-phenyl-3-(1H-tetrazol-5-yl)pentanoic acid] | 37.5 µM | 13 µM | 15.6 µM | 62 nM | 7.7 nM | 16 nM |  |  | 
10 | C[C@@H](c1ccccc1)[C@H](c1nnn[nH]1)[C@H](CCF)C(=O)O [Example 28, (2S,3S,4R)-2-(2-fluoroethyl)-4-phenyl-3-(1H-tetrazol-5-yl)pentanoic acid] | >200 µM | >200 µM | 200 µM | 1800 nM | 190 nM | 310 nM |  |  | 
11 | CC[C@H](C(=O)O)[C@@H](c1nnn[nH]1)[C@@H](C)c1ccccc1 [Example 29, (2S,3S,4R)-2-ethyl-4-phenyl-3-(1H-tetrazol-5-yl)pentanoic acid] | 200 µM | >200 µM | 25 µM | 2300 nM | 210 nM | 530 nM |  |  | 
12 | CCCC[C@@H](C(=O)O)[C@@H](Cc1ccc(Br)cc1)c1nnn[nH]1 [Example 30, (R)-2-((R)-2-(4-bromophenyl)-1-(1H-tetrazol-5-yl)ethyl)hexanoic acid] | >200 µM | 50 µM | >200 µM |  |  |  | 220 nM | 240 nM | 4700 nM
13 | O=C(O)[C@H](CCC1CCCCC1)[C@@H](Cc1ccccc1)c1nnn[nH]1 [Example 31, (2R,3R)-2-(2-cyclohexylethyl)-4-phenyl-3-(1H-tetrazol-5-yl)butanoic acid] | >200 µM | >200 µM | >200 µM | 410 nM | 590 nM | 740 nM |  |  | 
14 | O=C(O)[C@@H](CCCCO)[C@H](Cc1ccccc1)c1nnn[nH]1 [Example 32, (S)-6-hydroxy-2-((S)-2-phenyl-1-(1H-tetrazol-5-yl)ethyl)hexanoic acid] | 200 µM | >200 µM | 75 µM | 5000 nM | 240 nM | 720 nM |  |  | 
15 | N#CCCCC[C@H](C(=O)O)[C@H](Cc1ccccc1)c1nnn[nH]1 [Example 33, (S)-6-cyano-2-((S)-2-phenyl-1-(1H-tetrazol-5-yl)ethyl)hexanoic acid] | >200 µM | 50 µM | 75 µM | 2100 nM | 110 nM | 390 nM |  |  | 
16 | O=C(O)CCCC[C@H](C(=O)O)[C@H](Cc1ccccc1)c1nnn[nH]1 [Example 34, (S)-2-((S)-2-phenyl-1-(1H-tetrazol-5-yl)ethyl)heptanedioic acid] | 200 µM | 200 µM | 25 µM | 1500 nM | 40 nM | 200 nM |  |  | 
17 | NC(=O)CCCC[C@H](C(=O)O)[C@H](Cc1ccccc1)c1nnn[nH]1 [Example 35, (S)-7-amino-7-oxo-2-((S)-2-phenyl-1-(1H-tetrazol-5-yl)ethyl)heptanoic acid] | >200 µM | >200 µM | 100 µM | 3100 nM | 210 nM | 1400 nM |  |  | 
18 | O=C(O)[C@@H](CCCC1CCNCC1)[C@H](Cc1ccccc1)c1nnn[nH]1 [Example 36, (S)-2-((S)-2-phenyl-1-(1H-tetrazol-5-yl)ethyl)-5-(piperidin-4-yl)pentanoic acid] | 100 µM | 108 µM | 60 µM | 2000 nM | 21 nM | 30 nM |  |  | 
19 | O=C(O)[C@@H](CCCCc1ccccc1)[C@H](Cc1ccc2c(c1)OCO2)c1nnn[nH]1 [Example 37, (2S)-2-[(1S)-2-(1,3-benzodioxol-5-yl)-1-(2H-tetrazol-5-yl)ethyl]-6-phenylhexanoic acid] | >200 µM | 106 µM | 200 µM | 120 nM | 10 nM | 27 nM |  |  | 
